This note sets out measurements from PubChem BioAssay (NCI).

Test systems include UACC-257 melanoma; SF-268 CNS; SF-295 CNS; DU-145 prostate; K-562 leukemia; HOP-62 NSCLC; OVCAR-5 ovarian; SK-MEL-5 melanoma; SR leukemia; NCI-H460 lung.
What all share (assay): NCI anticancer screen, dose series, 48 h

Where “and” joins values, the source holds several entries; their conditions need not be identical. Equal entries are not always repeated.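 Where inhibition never reached the appropriate level, the endpoint shown equals the highest concentration tested. Otherwise, values were interpolated linearly from a five-concentration, 48-hour dose response in 96-well plates. GI50 = concentration required for 50% inhibition of growth. TGI: total growth inhibition.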 *1 amine or outer side, *2 acyl side, *3 side chain or, on linkers, in order; H or OH if unused. Where a SMILES comes first, the peptide text is derived from it. [ ]: non-standard residue; d: D form. X56 = CC[C@H](C)[C@H](OC(=O)[C@@H](C)[C@@H](CC)N[*:1])C(=O)[*:2]; X32 = C[C@H](N[*:1])C(=O)C(C)(C)C(=O)[*:2]; NMeY = CN[C@@H](Cc1ccc(O)cc1)C(=O)O; NMeL = CN[C@@H](CC(C)C)C(=O)O; NMeV = CN[C@H](C(=O)O)C(C)C

As to `CC[C@H](C)[C@@H]1OC(=O)[C@@H](C)[C@@H](CC)NC(=O)[C@H](C)NC(=O)C(C)(C)C(=O)[C@H](C)NC(=O)[C@H](Cc2ccc(OC)cc2)N(C)C(=O)[C@H](C(C)C)N(C)C(=O)CNC(=O)[C@H](CC(C)C)N(C)C(=O)CNC1=O` (cyclo(A[X56]G[NMeL]G[NMeV][NMeY](Me)[X32])), the GI50 is 0.0248 µM in the assay on UACC-257 melanoma; below 0.0161 µM in the assay with SF-268 CNS; 0.0102 µM with SF-295 CNS; below 0.0322 µM in the assay on K-562 leukemia; 0.349 µM in the assay with OVCAR-5 ovarian; 0.135 µM with SK-MEL-5 melanoma. In addition, in the assay on SR leukemia, the GI50 was 0.063 µM. Also, the TGI was 0.657 µM and 0.0793 µM with SF-295 CNS; 7.04 µM in the assay with DU-145 prostate; 0.634 µM with K-562 leukemia; 0.175 µM in the assay with HOP-62 NSCLC; above 100 µM in the assay with OVCAR-5 ovarian; 0.173 µM and 0.462 µM in the assay on SK-MEL-5 melanoma. In addition, the TGI with SR leukemia is 1.06 µM and 0.6 µM.

With `CN(C)CCCn1c2nc(=O)[nH]c(=O)c-2nc2cc(Cl)c(Cl)cc21`, the GI50 in the assay on UACC-257 melanoma is 2.23 µM; in the assay on SF-268 CNS, 5.31 µM; with NCI-H460 lung, 14.5 µM; in the assay with DU-145 prostate it was 16.4 µM; with K-562 leukemia, 3.43 µM; in the assay with HOP-62 NSCLC, 4.14 µM. The GI50 in the assay on OVCAR-5 ovarian is 14.2 µM; with SK-MEL-5 melanoma it was 1.65 µM; in the assay on SR leukemia it was 6.61 µM. Besides, the TGI is 5.66 µM in the assay on UACC-257 melanoma; 17.6 µM in the assay on SF-268 CNS; above 100 µM with NCI-H460 lung; 30 µM with DU-145 prostate; 15.3 µM with K-562 leukemia; 15.9 µM in the assay with HOP-62 NSCLC. In addition, the figures for the TGI in the assay on OVCAR-5 ovarian, with SK-MEL-5 melanoma and in the assay on SR leukemia were 30.4 µM, 3.12 µM and 30.5 µM, respectively.

For the molecule `CC1(O)CCC2(C#N)CCC1C2O` (stereo not drawn), the TGI in the assay with UACC-257 melanoma, in the assay on SF-268 CNS, in the assay with SF-295 CNS, in the assay with NCI-H460 lung, with K-562 leukemia and in the assay with HOP-62 NSCLC was above 100 µM each time. In addition, the results for the TGI in the assay with OVCAR-5 ovarian, with SK-MEL-5 melanoma and with SR leukemia were above 100 µM, above 100 µM and 45.4 µM, respectively.

As for `Cc1c2c(cc3c(=O)ccn(CCN(C)C)c13)c(=O)ccn2CCN(C)C`, the TGI amounted to 33.7 µM with UACC-257 melanoma; 21.8 µM with SF-268 CNS; 25.4 µM in the assay with SF-295 CNS; 14.1 µM with NCI-H460 lung; 44.9 µM in the assay on K-562 leukemia; 29.1 µM in the assay on HOP-62 NSCLC. For the same molecule, the TGI with OVCAR-5 ovarian is 42.3 µM; in the assay with SK-MEL-5 melanoma, 34.4 µM; with SR leukemia it was 37.6 µM.

Regarding `COc1cc(/C=C(\OC(C)=O)c2ccc3c(c2)OCO3)cc(OC)c1OC`, the TGI with UACC-257 melanoma was 34 µM; with SF-268 CNS it was 67.5 µM; in the assay on SF-295 CNS, 98.6 µM; with NCI-H460 lung it was above 100 µM; with K-562 leukemia it was above 100 µM; with HOP-62 NSCLC it was 47.7 µM. Besides, the TGI with OVCAR-5 ovarian was above 100 µM; in the assay on SK-MEL-5 melanoma it was 24.5 µM; in the assay on SR leukemia it was above 100 µM.

Turning to `COc1cc(Nc2nc3ccc(C(F)(F)F)cc3nc2-c2ccccc2)cc(OC)c1OC`, the TGI in the assay on UACC-257 melanoma is 85 µM; in the assay with SF-268 CNS, above 100 µM; with SF-295 CNS it was 11.6 µM; with NCI-H460 lung it was 32.3 µM; in the assay on K-562 leukemia, above 100 µM; with HOP-62 NSCLC, above 100 µM. Also, the TGI was 53.1 µM in the assay on OVCAR-5 ovarian, 59.4 µM in the assay with SK-MEL-5 melanoma and above 100 µM in the assay with SR leukemia.

For the molecule `Cc1ccc2c(c1)CNc1ccc(C)cc1CN2`, the TGI in the assay on SF-268 CNS, with SF-295 CNS, with NCI-H460 lung, in the assay on K-562 leukemia, in the assay on HOP-62 NSCLC and in the assay with OVCAR-5 ovarian was above 100 µM in each case. Besides, the TGI in the assay on SK-MEL-5 melanoma and in the assay with SR leukemia was above 100 µM in each case.

In the case of `CCOC(=O)CSc1[nH]c(NC(=S)Nc2ccccc2)c(C(N)=O)c1C(N)=O`, the TGI in the assay on UACC-257 melanoma, in the assay with SF-268 CNS, in the assay with SF-295 CNS, in the assay with DU-145 prostate, in the assay with K-562 leukemia and in the assay on HOP-62 NSCLC was above 10 µM in each case. The TGI with SK-MEL-5 melanoma and in the assay with SR leukemia was above 10 µM throughout.

Turning to `N#CC1CC2(C(=O)C1=O)c1ccccc1-c1ccccc12` (stereo not drawn), the TGI in the assay on UACC-257 melanoma, in the assay with SF-268 CNS, in the assay on SF-295 CNS, in the assay on NCI-H460 lung, in the assay with K-562 leukemia and with HOP-62 NSCLC was above 100 µM each time. In addition, the TGI in the assay on OVCAR-5 ovarian, in the assay on SK-MEL-5 melanoma and with SR leukemia was above 100 µM in each case.

With `Cc1nc(C(N)=S)sc1C(=O)C/C(=N/N)C(=O)Nc1ccc(Cl)cc1`, the TGI in the assay with UACC-257 melanoma, in the assay with SF-268 CNS, with SF-295 CNS, with NCI-H460 lung, with K-562 leukemia and in the assay with HOP-62 NSCLC was above 100 µM each time. Further, the TGI in the assay with OVCAR-5 ovarian, with SK-MEL-5 melanoma and with SR leukemia was above 100 µM in each case.

As for `NNC(=O)/C(NC(=O)c1ccccc1)=C(\N)c1ccc(Cl)cc1`, the TGI in the assay with UACC-257 melanoma, with SF-268 CNS, in the assay with SF-295 CNS, in the assay with NCI-H460 lung, in the assay on K-562 leukemia and in the assay with HOP-62 NSCLC was above 100 µM in each case. Besides, the TGI in the assay with OVCAR-5 ovarian, with SK-MEL-5 melanoma and in the assay on SR leukemia was above 100 µM each time.

For the molecule `S=c1nc(N2CCCCC2)ss1`, the TGI was determined as 49.9 µM in the assay with UACC-257 melanoma; 49.5 µM with SF-268 CNS; 81.4 µM in the assay with SF-295 CNS; 80.5 µM in the assay on NCI-H460 lung; 52.1 µM in the assay with K-562 leukemia; 64.6 µM in the assay with HOP-62 NSCLC. Besides, the TGI is above 100 µM in the assay with OVCAR-5 ovarian, 30.5 µM in the assay with SK-MEL-5 melanoma and 45.4 µM with SR leukemia.

For `CCOC(=O)/C(=C\c1ccc[nH]1)C(=O)c1ccccc1`, the TGI in the assay with UACC-257 melanoma, in the assay with SF-268 CNS, in the assay on SF-295 CNS, in the assay with NCI-H460 lung, in the assay on K-562 leukemia and in the assay with HOP-62 NSCLC was above 100 µM each time. Besides, the TGI with OVCAR-5 ovarian, in the assay on SK-MEL-5 melanoma and with SR leukemia was above 100 µM each time.

As for `COc1cc2c(cn1)[nH]c1ccccc12`, the TGI in the assay on UACC-257 melanoma, in the assay with SF-268 CNS, with SF-295 CNS, with NCI-H460 lung, in the assay on K-562 leukemia and in the assay with HOP-62 NSCLC was above 100 µM each time. Further, the TGI in the assay on OVCAR-5 ovarian, with SK-MEL-5 melanoma and in the assay on SR leukemia was above 100 µM in each case.
